Data as given in patent US20120136033A1, “Small Molecule Antagonists of Phosphatidylinositol-3,4,5-Triphosphate (PIP3) and Uses Thereof” (President and Fellows of Harvard College, priority 2009, published 2012).

Experiments:
[1] = biological target: T1, R86A mutant of the Akt PH domain (Homo sapiens, UniProt P31749, R86A); assay: NMR HSQC, R86A mutant of the PH domain; type: binding
T1 construct: Human Akt PH domain a.a; 1-123; His6 (N); made in house; host or cells: E. coli BL21(DE3)

PI3K-PDK1-Akt signaling = PI3K-PDK1-Akt signaling in growth factor-stimulated SUM159 cells; type: cell-based, human
caspase-3 = assay: Western blot of caspase-3 cleavage and PARP processing; type: cell-based
Source text: Since PI3K/PIP3/Akt signaling plays a critical role in the inhibition of apoptosis (Datta S R et al. (1999) Genes Dev 13:2905-27), the possibility that PITs induce apoptosis was examined. […] Proapoptotic Bcl-2 family members Bax and Bak are important mediators of apoptosis. Wei M C et al. (2001) Science 292:727-30. […] Non-apoptotic mechanisms of cell death may also play some additional, albeit less important, role in PIT-induced killing, as some cell death was still observed in Bax/Bak-deficient cells and in the presence of zVAD.fmk.

PLC-δ PH domain = biological target: T2, PLC-δ PH domain (Homo sapiens, UniProt P51178); assay: PH domain translocation assay, GFP-fused PLC-δ PH domain; type: cell-based
T2 construct: 100 nM PLC-δ PH domain
T2 sequence (P51178 21-130 limits assumed): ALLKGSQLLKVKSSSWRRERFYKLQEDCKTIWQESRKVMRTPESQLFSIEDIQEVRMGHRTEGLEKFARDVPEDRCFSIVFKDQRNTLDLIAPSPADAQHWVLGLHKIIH
Method: Cells were transfected with the corresponding GFP-fusion vectors, serum starved overnight, and incubated with 100 μM PITs or PIT-1is for 2 hr, followed by stimulation with 100 ng/ml PDGF or 250 ng/ml PMA for 5 min. The translocation was analyzed using fluorescent microscope and was quantitated by counting the number of cells with translocated PH domains in five random fields.
In contrast, no inhibitory effect was observed on the cellular localization of PLC-δ PH domain, which is specific for PIP2.

PH123 (Akt PH domain) = biological target: T3, PH123 (Akt PH domain) (Homo sapiens, UniProt P31749); assay: lipid overlay assay of PIP3/PH123 binding
T3 construct: recombinant 1-123 amino acid N-terminal fragment of human Akt1; made in house; host or cells: E. coli BL21(DE3)

[2] = system: differentiated HL-60 cells; assay: fMLP-stimulated HL-60 cell polarization; type: cell-based; details: 100 μM, 2 hr
Method: In another set of experiments, the ability of PITs to inhibit fMLP-stimulated HL-60 cell polarization was examined. Differentiated HL-60 cells were treated with PIT-1, PIT-2, PIT-1i-1, or PIT-1i-2, each at 100 μM for 2 hr, followed by stimulation with 100 nM fMLP for 3 min. Actin was stained and analyzed using fluorescent microscopy. The number of the polarized cells was counted in five random fields.

[3] = system: PI3K/PDK1/Akt signaling pathway; assay: PI3K/PDK1/Akt signaling in HUVEC, Western blotting; type: cell-based, human; details: 50, 100, 200 μM, 2 hr, bFGF
Method: Endothelial cell migration plays a central role in tumor angiogenesis. Avraamides C J et al. (2008) Nat Rev Cancer 8:604-17. […] First, human umbilical vein endothelial cells (HUVEC) cells were serum starved overnight, and treated with different concentrations of PIT-1 (50, 100 and 200 μM) for 2 hr, followed by stimulation with 10 ng/ml bFGF for 15 min, and the PIP3-dependent phosphorylation events were evaluated by Western blotting.

[4] = biological target: T4, PH domain of Akt (His6-Akt123) (Homo sapiens, UniProt P31749); assay: NMR 2D HSQC 1H-15N binding analysis, His6-Akt123
T4 construct: Human Akt PH domain a.a; 1-123; made in house; host or cells: E. coli BL21(DE3)
Method: Human Akt PH domain a.a. 1-123 and human PDK1 PH domain a.a. 411-557 were cloned by PCR amplification into Bam HI/Eco RI sites of pGEX-6P-1 vector (GE Healthcare). For NMR experiments, His6-Akt PH123 was prepared by cloning corresponding PCR fragment between Nde I and Eco RI sites of pET-28 vector (Novagen). Recombinant proteins were expressed in BL21(DE3) E. coli. Expression was induced by addition of 100 μM IPTG for 16 hr at 25° C. Proteins were purified using glutathione-sepharose (GE Healthcare) or Ni-NTA beads (Qiagen) according to manufacturer's recommendations and dialyzed overnight against 50 mM Tris-HCl (pH 7.5), 150 mM NaCl, and 5 mM β-mercaptoethanol (b-ME) buffer.
To further characterize the mode of action of PIT-1, NMR-based analyses of PIT-1 binding to the PH domain of Akt were performed. […] PIT-1 was further titrated to identify residues primarily affected by the small molecule binding.

LC3-II = assay: autophagic marker LC3-II in U87MG cells; type: cell-based, human
Source text: Changes in cell metabolism have emerged in recent years as an important component of PI3K/PIP3/Akt signaling, contributing to the regulation of cell viability and transformation by the PI3K/Akt pathway. Datta S R et al. (1999) Genes Dev 13:2905-27; Elstrom R L et al. (2004) Cancer Res 64:3892-9. Therefore, the possibility that PIT-1 may cause dysregulation of energy homeostasis and induction of the metabolic stress in cancer cells, which may contribute to the PIT-induced cell death, was investigated. […] Hardie D G (2007) Nat Rev Mol Cell Biol 8:774-85. […] Mathew R et al. (2007) Nat Rev Cancer 7:961-7. […] Takeuchi H et al. (2005) Cancer Res 65:3336-46.

T4 sequence (P31749 1-123): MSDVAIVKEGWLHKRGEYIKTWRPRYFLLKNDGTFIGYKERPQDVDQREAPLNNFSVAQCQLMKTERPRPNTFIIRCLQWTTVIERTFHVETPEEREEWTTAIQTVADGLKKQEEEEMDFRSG
T3 sequence (P31749 1-123): as above
T1 sequence (P31749 1-123 R86A): as the sequence (P31749 1-123) above, with R86A counted along it

Compound: O=C(NC(=S)Nc1cc([N+](=O)[O-])cc(Cl)c1O)c1ccccc1 [PIT-1]
- effect on HSQC of R86A mutant PH domain [1]: had no effect
- PI3K-PDK1-Akt signaling in SUM159 cells (PI3K-PDK1-Akt signaling): significantly suppressed
- cleavage/activation of caspase-3 and processing of PARP (caspase-3): induced the cleavage/activation
- effect on PLC-δ PH domain localization / PIP2/PH domain binding in cells (PLC-δ PH domain): does not disrupt
- effect on PIP3/PH123 binding, lipid overlay (PH123 (Akt PH domain)): concentration-dependent inhibitory effect
- fMLP-stimulated polarization of differentiated HL-60 neutrophils [2]: efficient inhibition
- PI3K/PDK1/Akt signaling pathway in HUVEC [3]: capable of blocking
- changes in 2D HSQC spectrum of His6-Akt123 [4]: induces significant changes
- expression of autophagic marker LC3-II (LC3-II): prominently increased
